# Patent US20020039787A1, “Method for culturing cells” (priority 2000, published 2002)
# Assays:
# [1] = test system: human myometrial microvascular endothelial cells (MEC); experiment: Endothelial cell proliferation assay (CellTitre 96 MTS bioassay); type: cell-based; details: for effect of cAMP promoter on bFGF-stimulated MEC proliferation: IBMX 330 μM, dibutyryl cAMP 50 μM; for stimulation of MEC proliferation by maximal concentrations of growth factors: P5 MEC, M199 with 20% HS, 6 days (FIG. 5); for growth factor-stimulated MEC proliferation with combinations of HS and FCS in the medium: compared with HS alone (FIG. 3B); for dose dependence of stimulated MEC proliferation: concentration range 0.01-20 ng/ml (FIG. 6); for EC50 of growth factor-induced MEC proliferation: 6 days, absorbance as % of maximal response
# Experimental: The CellTitre 96 MTS tetrazolium-based bioassay (Promega, Madison, WT, USA), where the absorbance of the formazan product is directly proportional to the number of viable cells, was used to indirectly measure cell number after incubation of MEC with various mitogens. It was initially established that the MTS bioassay was linear from 0-2 ×10^4 MEC/well. MEC in basal M199 medium (M199 medium containing 5% PCS, 2 mM glutamine, antibiotic/antimycotic mixture) were seeded in triplicate onto fibronectin (10 μg/ml) coated wells of 96 well plates at 2000 cells/well and allowed to attach the quiesce for 36 hours at 37° C. in 5% CO2/air. Medium was replaced with the standard or complex M199 culture medium (day 0) with or without the following growth factors: 10 ng/ml vascular endothelial growth factor (VEGF121;gift from Dr J Abrahams, Scios Inc, Sunnyvale, Calif., USA), 0.01-20 ng/ml VEGF165 (R & D Systems, Minneapolis, Minn., USA) bFGF (0.01-10 ng/ml), 120 μg/ml EC growth factor (ECGF; Boehringer Mannheim) 50 ng/ml epidermal growth factor (EGF; R & D Systems), depending on the assay conditions being tested. In some experiments different concentrations of HS and FCS and combinations of both were tested and in other experiments various component of the complex medium were omitted. Cells were incubated at 37° C. in 5% CO2/air for 6 or 10 days, with medium changes every 2 days. Twenty μl 3-(4,5-dimethylthiazol-2-yl)-5-(3-carboxymethoxyphenyl)-2-(4sulphophenyl)-2H-tetrazolium (MTS) was added to the cells and incubated 2 hours at 37° C. and absorbance measured at 490 nm using a plate reader (Emax, Molecular Devices, Sunnyvale, Calif., USA). Absorbance was also measured on day 0 and this value subtracted from all results to determine MEC growth over 6 days.
# [2] = test system: human myometrial microvascular endothelial cells (MEC); experiment: MEC migration assay (monolayer wound assay); type: cell-based; set-up: key to migration of MEC into denuded area, Early Passage MEC (P4) / migration of MEC into denuded area, Late Passage MEC (P12): +/−: very low; +: low; ++: medium; +++: high coverage of the denuded area; details: for migration of MEC in response to growth factor: 48 hour incubation in basal medium, high and low passage MEC; for migration of MEC into denuded area, Early Passage MEC (P4) / migration of MEC into denuded area, Late Passage MEC (P12): semi-quantitative coverage of denuded area after wounding, basal medium
# Experimental: […] The medium was changed to basal medium, the MEC monolayers wounded using a plastic pasteur pipette and photographed using a Zeiss inverted phase contrast microscope. Duplicate wells were incubated with or without VEGF165 (10 ng/ml) or bFGF (5 ng/ml) in the presence and absence of 40 μg/ml rabbit anti human VEGF antibody (Gargett et al., 1999) or 50 μg/ml goat anti-human bFGF antibody (R & D Systems) respectively for 48 hours at 37° C. in 5% CO/air and the same field of view was rephotographed.
# A characteristic feature of EC is their ability to migrate in response to certain growth factors (Goodman et al., 1985; Ferrara and DavisSmyth, 1997). The migration of early and late passage myometrial MEC in response to bFGF and VEGF was examined using the monolayer wound assay (Goodman el al., 1985) in the presence and absence of neutralising bFGF and VEGF antibodies.
# [3] = over 10 days, 5 ng/ml bFGF, 15% HS/5% FCS (FIG. 4)
# [4] = early (low) passage MEC (P1, P2, P3)
# [5] = late (high) passage MEC (P10, P13)
compound,measurement,setting,value
"C[C@]12CCC(=O)C=C1CC[C@@H]1[C@@H]2[C@@H](O)C[C@@]2(C)[C@H]1CC[C@]2(O)C(=O)CO [Hydrocortisone, hydrocortisone, reference compound]",effect on bFGF-induced myometrial MEC proliferation,[1]; in the presence or absence of IBMX or dibutyryl cAMP (results not shown),no significant effect
"CC(C)Cn1c(=O)n(C)c(=O)c2[nH]cnc21 [IBMX, 3-isobutyl-1-methyl xanthine, reference compound]",effect of cAMP promoter on bFGF-stimulated MEC proliferation,[1]; [3],significantly greater proliferation of myometrial MEC over 10 days in the absence
"CCCC(=O)Nc1ncnc2c1ncn2[C@@H]1O[C@@H]2COP(=O)(O)O[C@H]2[C@H]1OC(=O)CCC [dibutyryl cAMP, N-6, 2 ′-O-dibutyryl adenosine 3′,5′-cyclic monophosphate, reference compound]",effect of cAMP promoter on bFGF-stimulated MEC proliferation,"[1]; after 5 days, 5 ng/ml bFGF (FIG. 4)",greater growth was observed in the absence
same,effect of cAMP promoter on bFGF-stimulated MEC proliferation,[1]; [3],significantly greater proliferation of myometrial MEC over 10 days in the absence
"EGF: epidermal growth factor (R & D Systems) (NSDSECPLSHDGYCLHDGVCMYIEALDKYACNCVVGYIGERCQYRDLKWWELR; Epidermal growth factor; UniProt P01133 971-1023, looked up)",stimulation of MEC proliferation by maximal concentrations of growth factors,[1],weakly mitogenic
"bFGF: mitogen, growth factor (Gibco BRL)",stimulation of MEC proliferation by maximal concentrations of growth factors,[1],maximal stimulation of MEC proliferation
same,growth factor-stimulated MEC proliferation with combinations of HS and FCS in the medium,[1],even greater levels of MEC proliferation
same,dose dependence of stimulated MEC proliferation,[1],dose dependent manner
same,EC50 of growth factor-induced MEC proliferation,[1]; [4],~0.6 ng/mL
same,difference in absorbance between maximal and minimal response measured at day 6,"[1]; high passage MEC, n=2",0.82
same,EC50 of growth factor-induced MEC proliferation,[1]; [5],~0.9 ng/mL
same,difference in absorbance between maximal and minimal response measured at day 6,"[1]; low passage MEC, n=3",0.50 ±0.07
same,migration of MEC in response to growth factor,[2],migrated into the denuded area to a comparable extent
same,"migration of MEC into denuded area, Early Passage MEC (P4)",[2],+++
same,"migration of MEC into denuded area, Late Passage MEC (P12)",[2],++
vascular endothelial growth factor [VEGF],growth factor-stimulated MEC proliferation with combinations of HS and FCS in the medium,[1],even greater levels of MEC proliferation
same,dose dependence of stimulated MEC proliferation,[1],dose dependent manner
same,EC50 of growth factor-induced MEC proliferation,[1]; [4],~1.5 ng/mL
same,difference in absorbance between maximal and minimal response measured at day 6,"[1]; high passage MEC, n=2",0.70
same,EC50 of growth factor-induced MEC proliferation,[1]; [5],~1.6 ng/mL
same,difference in absorbance between maximal and minimal response measured at day 6,"[1]; low passage MEC, n=3",0.51 ±0.09
same,migration of MEC in response to growth factor,[2],migrated into the denuded area to a comparable extent
same,"migration of MEC into denuded area, Early Passage MEC (P4)",[2],+++
same,"migration of MEC into denuded area, Late Passage MEC (P12)",[2],+++
